Laboratory results: US5585491A, “Antibacterial agents” (Otsuka Pharmaceutical Co., Ltd., priority 1995, dated 1996)
In brackets after ≈: the same amount, converted by molar mass. Where two headings read alike, the source gives them in different places.

Experiments:
Assay in all cases: In vitro antibacterial activity, microtitration dilution method (MIC)
Type in all cases: cell-based
[1] = system: Enterobacter cloacae MA 2646
From the text: (§1) The compounds of the invention display antibacterial activity when tested by the microtitration dilution method as described in Heifetz, et al, Antimicr. Agents & Chemoth., 6, 124 (1974), which is incorporated herein by reference. By use of this method, the followed minimum inhibitory concentration values (MICs in μg/mL) were obtained for representative compounds of the invention.

Escherichia coli Vogel = conditions: Escherichia coli Vogel, microtitration dilution; read-out: Minimal Inhibitory Concentration MIC
From the text: as §1

[2] = system: Providencia rettgeri M 1771; conditions: M1771; Providencia rettgeri M 1771, microtitration dilution; read-out: Minimal Inhibitory Concentration MIC
From the text: as §1

[3] = system: Staphylococcus aureus H 228; conditions: H228; Staphylococcus aureus H 228, microtitration dilution; read-out: Minimal Inhibitory Concentration MIC
From the text: as §1

[4] = system: Streptococcus pyogenes C-203; conditions: C203; Streptococcus pyogenes C-203, microtitration dilution; read-out: Minimal Inhibitory Concentration MIC
From the text: as §1

[5] = system: Klebsiella pneumoniae MGH-2
From the text: (§2) Agents & Chemoth., 6, 124 (1974), which is incorporated herein by reference.

[6] = system: Pseudomonas aeruginosa UI-18
From the text: as §2

[7] = system: Staphylococcus aureus UC-76; conditions: UC76; Staphylococcus aureus UC-76, microtitration dilution; read-out: Minimal Inhibitory Concentration MIC
From the text: as §2

[8] = system: Streptococcus faecalis MGH-2; conditions: Enterococcus faecalis, MGH2; Streptococcus faecalis MGH-2, microtitration dilution; read-out: Minimal Inhibitory Concentration MIC
From the text: as §2

[9] = system: Streptococcus pneumoniae SV-1; conditions: SV1; Streptococcus pneumoniae SV-1, microtitration dilution; read-out: Minimal Inhibitory Concentration MIC
From the text: as §2

Proteus rettgeri M 1771 = conditions: Providencia rettgeri
From the text: as §2

[10] = MA2646, Enterobacter cloacae MA 2646, microtitration dilution, read-out: Minimal Inhibitory Concentration MIC
[11] = MGH2, Klebsiella pneumoniae MGH-2, microtitration dilution, read-out: Minimal Inhibitory Concentration MIC
[12] = UI18, Pseudomonas aeruginosa UI-18, microtitration dilution, read-out: Minimal Inhibitory Concentration MIC
[13] = Enterobacter cloacae, MA2646, read-out: Minimal Inhibitory Concentration MIC
[14] = Klebsiella pneumoniae, MGH2, read-out: Minimal Inhibitory Concentration MIC
[15] = Pseudomonas aeruginosa, UI18, read-out: Minimal Inhibitory Concentration MIC
[16] = M1771, Proteus rettgeri M 1771, microtitration dilution, read-out: Minimal Inhibitory Concentration MIC
[17] = M1771, read-out: Minimal Inhibitory Concentration MIC

Structure (SMILES)	MIC [1, 10] [µg/mL]	MIC (Escherichia coli Vogel) [µg/mL]	MIC [2] [µg/mL]	MIC [3] [µg/mL]	MIC [4] [µg/mL]	MIC [5, 11] [µg/mL]	MIC [6, 12] [µg/mL]	MIC [7] [µg/mL]	MIC [8] [µg/mL]	MIC [9] [µg/mL]	MIC [1, 13] [µg/mL]	MIC [5, 14] [µg/mL]	MIC [6, 15] [µg/mL]	MIC (Proteus rettgeri M 1771; [16]) [µg/mL]	MIC (Proteus rettgeri M 1771; [17]) [µg/mL]
Cc1c(F)c(N2CCNCC2)c(F)c2c1c(=O)c(C(=O)O)cn2C1CC1 [Ex. 1, 1-Cyclopropyl-6,8-difluoro-1,4-dihydro-5-methyl-4-oxo-7-(1-piperazinyl)-3-quinolinecarboxylic acid]	0.025 (≈ 0.0688 µM)	0.025 (≈ 0.0688 µM)	0.05 (≈ 0.138 µM)	0.025 (≈ 0.0688 µM)	0.05 (≈ 0.138 µM)	0.025 (≈ 0.0688 µM)	0.2 (≈ 0.55 µM)	0.025 (≈ 0.0688 µM)	0.05 (≈ 0.138 µM)	0.025 (≈ 0.0688 µM)					
Cc1c(F)c(N2CCC(N)C2)c(F)c2c1c(=O)c(C(=O)O)cn2C1CC1 (stereo not drawn) [Ex. 2, 7-(3-Amino-1-pyrrolidinyl)-1-cyclopropyl-6,8-difluoro-1,4-dihydro-5-methyl-4-oxo-3-quinolinecarboxylic acid]	0.006 (≈ 0.0165 µM)	0.006 (≈ 0.0165 µM)	0.025 (≈ 0.0688 µM)	0.013 (≈ 0.0358 µM)	0.013 (≈ 0.0358 µM)	0.013 (≈ 0.0358 µM)	0.4 (≈ 1.1 µM)	0.003 (≈ 0.00826 µM)	0.025 (≈ 0.0688 µM)	0.003 (≈ 0.00826 µM)					
CCNCC1CCN(c2c(F)c(C)c3c(=O)c(C(=O)O)cn(C4CC4)c3c2F)C1 (stereo not drawn) [Ex. 3, 1-Cyclopropyl-7-[3-[(ethylamino)methyl]-1-pyrrolidinyl]-6,8-difluoro-1,4-dihydro-5-methyl-4-oxo-3-quinolinecarboxylic acid]	0.1 (≈ 0.247 µM)	0.05 (≈ 0.123 µM)	0.2 (≈ 0.493 µM)	0.013 (≈ 0.0321 µM)	0.006 (≈ 0.0148 µM)	0.1 (≈ 0.247 µM)	0.8 (≈ 1.97 µM)	0.003 (≈ 0.0074 µM)	0.025 (≈ 0.0617 µM)	0.003 (≈ 0.0074 µM)					
Cc1c(F)c(N2CCC(C)(CN)C2)c(F)c2c1c(=O)c(C(=O)O)cn2C1CC1 (stereo not drawn) [Ex. 4, 7-[3-(Aminomethyl)-3-methyl-1-pyrrolidinyl]-1-cyclopropyl-6,8-difluoro-1,4-dihydro-5-methyl-4-oxo-3-quinolinecarboxylic acid]		0.05 (≈ 0.128 µM)	0.2 (≈ 0.511 µM)	0.006 (≈ 0.0153 µM)	0.003 (≈ 0.00766 µM)		0.8 (≈ 2.04 µM)	0.003 (≈ 0.00766 µM)	0.025 (≈ 0.0639 µM)	0.003 (≈ 0.00766 µM)	0.05 (≈ 0.128 µM)	0.1 (≈ 0.255 µM)			
Cc1c(F)c(N2CCNC(C)C2)c(F)c2c1c(=O)c(C(=O)O)cn2C1CC1 (stereo not drawn) [Ex. 5, 1-Cyclopropyl-6,8-difluoro-1,4-dihydro-5-methyl-7-[3-methyl-1-piperazinyl]-4-oxo-3-quinolinecarboxylic acid]	0.025 (≈ 0.0662 µM)	0.05 (≈ 0.132 µM)	0.1 (≈ 0.265 µM)	0.025 (≈ 0.0662 µM)	0.006 (≈ 0.0159 µM)	0.05 (≈ 0.132 µM)		0.013 (≈ 0.0344 µM)	0.1 (≈ 0.265 µM)	0.025 (≈ 0.0662 µM)			0.4 (≈ 1.06 µM)		
Cc1c(F)c(N2CCNCC2)cc2c1c(=O)c(C(=O)O)cn2C1CC1 [Ex. 6, 1-Cyclopropyl-6-fluoro-1,4-dihydro-5-methyl-4-oxo-7-(1-piperazinyl)-3-quinolinecarboxylic acid]	0.013 (≈ 0.0376 µM)	0.013 (≈ 0.0376 µM)	0.1 (≈ 0.29 µM)	0.1 (≈ 0.29 µM)	0.1 (≈ 0.29 µM)	0.05 (≈ 0.145 µM)	0.2 (≈ 0.579 µM)	0.025 (≈ 0.0724 µM)	0.05 (≈ 0.145 µM)	0.05 (≈ 0.145 µM)					
Cc1c(F)c(N2CCC(N)C2)cc2c1c(=O)c(C(=O)O)cn2-c1ccc(F)cc1F (stereo not drawn) [Ex. 17c, 7-(3-Amino-1-pyrrolidinyl)-6-fluoro-1-(2,4-difluorophenyl)-1,4-dihydro-5-methyl-4-oxo-3-quinolinecarboxylic acid]		0.05 (≈ 0.12 µM)		0.05 (≈ 0.12 µM)	0.05 (≈ 0.12 µM)		0.8 (≈ 1.92 µM)	0.013 (≈ 0.0311 µM)	0.1 (≈ 0.24 µM)	0.025 (≈ 0.0599 µM)	0.05 (≈ 0.12 µM)	0.1 (≈ 0.24 µM)		0.2 (≈ 0.479 µM)	
Cc1c(F)c(N2CCC(C)(CN)C2)cc2c1c(=O)c(C(=O)O)cn2-c1ccc(F)cc1F (stereo not drawn) [Ex. 17e, 7-[3-(Aminomethyl)-3-methyl-1-pyrrolidinyl]-6-fluoro-1(2,4-difluorophenyl)-1,4-dihydro-5-methyl-4-oxo-3-quinolinecarboxylic acid]	0.4 (≈ 0.898 µM)	0.4 (≈ 0.898 µM)		0.05 (≈ 0.112 µM)	0.025 (≈ 0.0561 µM)	0.8 (≈ 1.8 µM)	3.1 (≈ 6.96 µM)	0.013 (≈ 0.0292 µM)	0.2 (≈ 0.449 µM)	0.013 (≈ 0.0292 µM)				0.8 (≈ 1.8 µM)	
Cc1c(F)c(N2CCC(N)C2)nc2c1c(=O)c(C(=O)O)cn2C1CC1 (stereo not drawn) [Ex. 18, 7-(3-Amino-1-pyrrolidinyl)-1-cyclopropyl-6-fluoro-1,4-dihydro-5-methyl-4-oxo-1,8-naphthyridine-3-carboxylic acid]	0.013 (≈ 0.0375 µM)	0.013 (≈ 0.0375 µM)		0.25 (≈ 0.722 µM)	0.025 (≈ 0.0722 µM)	0.025 (≈ 0.0722 µM)	0.2 (≈ 0.577 µM)	0.013 (≈ 0.0375 µM)	0.05 (≈ 0.144 µM)	0.013 (≈ 0.0375 µM)					0.1 (≈ 0.289 µM)
Cc1c(F)c(N2CCNCC2)nc2c1c(=O)c(C(=O)O)cn2C1CC1 [Ex. 19, 1-Cyclopropyl-6-fluoro-1,4-dihydro-5-methyl-4-oxo-7-(1-piperazinyl)-1,8-naphthyridine-3-carboxylic acid]	0.025 (≈ 0.0722 µM)	0.013 (≈ 0.0375 µM)		0.2 (≈ 0.577 µM)	0.4 (≈ 1.15 µM)	0.05 (≈ 0.144 µM)		0.1 (≈ 0.289 µM)	0.2 (≈ 0.577 µM)	0.1 (≈ 0.289 µM)			0.4 (≈ 1.15 µM)	0.2 (≈ 0.577 µM)	
Cc1c(F)c(N2CCC(N)C2)nc2c1c(=O)c(C(=O)O)cn2-c1ccc(F)cc1F (stereo not drawn) [Ex. 22, 7-(3-Amino-1-pyrrolidinyl)-1-(2,4-difluorophenyl)-6-fluoro-1,4-dihydro-5-methyl-4-oxo-1,8-naphthyridine-3-carboxylic acid]		0.05 (≈ 0.12 µM)		0.05 (≈ 0.12 µM)	0.05 (≈ 0.12 µM)	0.05 (≈ 0.12 µM)	0.2 (≈ 0.478 µM)	0.013 (≈ 0.0311 µM)	0.1 (≈ 0.239 µM)	0.05 (≈ 0.12 µM)	0.05 (≈ 0.12 µM)				0.1 (≈ 0.239 µM)
Cc1c(F)c(N2CC[C@@H]([C@H](C)N)C2)nc2c1c(=O)c(C(=O)O)cn2-c1ccc(F)cc1F [Ex. 23, 3R, 1'S-7-[3-(1-Aminoethyl)-1-pyrrolidinyl]-1-(2,4-difluorophenyl)-6-fluoro-1,4-dihydro-5-methyl-4-oxo-1,8-naphthyridine carboxylic acid]	0.2 (≈ 0.448 µM)	0.1 (≈ 0.224 µM)		0.006 (≈ 0.0134 µM)	0.003 (≈ 0.00672 µM)		0.2 (≈ 0.448 µM)	0.003 (≈ 0.00672 µM)	0.013 (≈ 0.0291 µM)	0.003 (≈ 0.00672 µM)		0.1 (≈ 0.224 µM)		0.2 (≈ 0.448 µM)	
